In one data set the test system is S. paratyphi 11737. The experiment in a line: In vitro antibacterial activity (MIC), S. paratyphi 11737. It counts as cell-based. The settings on record: Salmonella enterica, 18 h.
Data set [1] in a line: Antimalarial blood schizonticidal test in mice. It counts as in vivo, Plasmodium berghei (infected ICR/HA Swiss mice). Set-up: ΔMST (increase in mean survival time): unit: days. The settings on record: mouse, in vivo, sc, single dose, read-out: Highest Non-Lethal Dose. An outline of the steps: (§1)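 ICR/HA Swiss mice (18–22 g) infected i.p. with 4 × 10^7 P. berghei KBG 173-parasitized cells; single subcutaneous dose in peanut oil at 72 h post-infection, graded dosages. Survival followed 60 days; 60-day survivors counted cured, deaths before day 6 counted toxic; mean survival time compared with untreated controls.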

In data set [2] the test system is Plasmodium berghei KBG 173. The experiment in a line: Antimalarial blood schizonticidal test in mice. The data set is classed as in vivo, Plasmodium berghei (infected ICR/HA Swiss mice). Set-up: ΔMST (increase in mean survival time): unit: days. As to conditions: s.c.; for ED100 / minimal effective dose: Plasmodium berghei, sc, single dose; for ED100: read-out: Lowest Dose Curing All Mice; for minimal effective dose: read-out: Min. Curing Dose; for Cure/Treat at Min. Curing Dose: at the Min. Curing Dose. An outline of the steps:
as §1

A further data set deals with E. coli 9637. Kind of data set: In vitro antibacterial activity (MIC), E. coli 9637. As to conditions: Escherichia coli, 9637, 18 h.
Another data set has as its system S. aureus Smith. Kind of data set: In vitro antibacterial activity (MIC), S. aureus Smith. As to conditions: Staphylococcus aureus, 18 h.
Another data set relates to S. aureus 53-180. The experiment in a line: In vitro antibacterial activity (MIC), S. aureus 53-180. The settings on record: Staphylococcus aureus, 53180, 18 h.
Another data set deals with P. vulgaris 6896. Kind of data set: In vitro antibacterial activity (MIC), P. vulgaris 6896. As to conditions: Proteus vulgaris, 6896, 18 h.
In another data set the test system is N. catarrhalis 8193. The experiment in a line: In vitro antibacterial activity (MIC), N. catarrhalis 8193. The settings on record: 18 h.
In another data set the test system is K. pneumoniae 10031. The experiment in a line: In vitro antibacterial activity (MIC), K. pneumoniae 10031. As to conditions: Klebsiella pneumoniae, 10031, 18 h.
Where [3] appears, read: this is the highest dose tested.
The mark [4] stands for this setting: infected mice, highest dose with no deaths for any reason.
[5] abbreviates: 336 h, alive on day 14 considered cured, no 60-day data.

SMILES strings stand for the structures. Values after ≈ are worked out from the molar mass of the structure shown. Like-named read-outs stand apart in the source and are kept apart here.

On to `CCCCCCCn1ccc2c3c(N)nc(N)nc3ccc21` [Example 53], for which the MIC against S. paratyphi 11737 stood at 62.5 µg/mL (≈ 210 µM); against E. coli 9637 it was 31.3 µg/mL (≈ 105 µM); against S. aureus Smith it was 31.3 µg/mL (≈ 105 µM); against S. aureus 53-180, 15.6 µg/mL (≈ 52.5 µM); against P. vulgaris 6896 it was 250 µg/mL (≈ 841 µM); in the data set with N. catarrhalis 8193, 0.488 µg/mL (≈ 1.64 µM). Also, in the data set with K. pneumoniae 10031, the MIC stood at 3.9 µg/mL (≈ 13.1 µM). In addition, in data set [1] (setting [3]), the MTD came out at 640 mg/kg. Also, the ED100 in data set [2] (1440 h, 60-day survivors) is 640 mg/kg. Further, the minimal effective dose in data set [2] (1440 h, 60-day survivors) is 320 mg/kg. For the same molecule, the “Cure/Treat at Min. Curing Dose” value in [2] (60-day survivors) is reported as 2/5. Besides, the “ΔMST (increase in mean survival time)” value in data set [2] (dose 160 mg. per kg.) came out at 9.5.

For the molecule `Nc1nc(N)c2c(ccc3c2ccn3CCCc2ccccc2)n1` [Example 56], the MIC against S. paratyphi 11737, in the data set with E. coli 9637, with S. aureus Smith, in the data set on S. aureus 53-180, with P. vulgaris 6896 and against N. catarrhalis 8193 was 250 µg/mL (≈ 788 µM) each time. In the data set with K. pneumoniae 10031, this molecule showed an MIC of 250 µg/mL (≈ 788 µM). Moreover, in [1] (setting [3]), the MTD was 640 mg/kg. For the same molecule, the ED100 in [2] (1440 h, 60-day survivors) was found to be 320 mg/kg. In addition, the minimal effective dose in data set [2] (1440 h, 60-day survivors) came to 160 mg/kg. For the same molecule, the “Cure/Treat at Min. Curing Dose” value in [2] (60-day survivors) is listed as 3/5. For the same molecule, the “ΔMST (increase in mean survival time)” value in data set [2] (dose 80 mg. per kg.) is reported as 10.7.

With `CC(=O)c1ccc(Cn2ccc3c4c(N)nc(N)nc4ccc32)cc1` [Example 61, 7-[(4-Acetylphenyl)methyl]-7H-pyrrolo[3,2-f]-quinazoline-1,3-diamine], the MIC was found to be 0.976 µg/mL (≈ 2.95 µM) against S. paratyphi 11737; 0.488 µg/mL (≈ 1.47 µM) in the data set on E. coli 9637; 0.244 µg/mL (≈ 0.736 µM) in the data set on S. aureus Smith; 0.122 µg/mL (≈ 0.368 µM) against S. aureus 53-180; 1.95 µg/mL (≈ 5.88 µM) against P. vulgaris 6896; 0.0076 µg/mL (≈ 0.0229 µM) in the data set on N. catarrhalis 8193. In the data set with K. pneumoniae 10031, the MIC amounted to 0.061 µg/mL (≈ 0.184 µM). Moreover, the MTD in data set [1] (setting [4]) was 40 mg/kg. For the same molecule, the ED100 in [2] (1440 h, 60-day survivors) worked out at 20 mg/kg. Also, the minimal effective dose in data set [2] (1440 h, 60-day survivors) stood at 2.5 mg/kg. In addition, in data set [2] (60-day survivors), the “Cure/Treat at Min. Curing Dose” value is listed as 4/5. Moreover, the “ΔMST (increase in mean survival time)” value in data set [2] (dose 5 mg. per kg.) is reported as 12.0.

Turning to `Nc1nc(N)c2c(ccc3c2ccn3Cc2ccc(OC(F)(F)F)cc2)n1` [Example 64, 7-[(4-Trifluoromethoxyphenyl)methyl]-7H-pyrrolo[3,2-f]quinazoline-1,3-diamine], the MIC was determined as 62.5 µg/mL (≈ 167 µM) against S. paratyphi 11737; 3.9 µg/mL (≈ 10.4 µM) in the data set on E. coli 9637; 0.976 µg/mL (≈ 2.61 µM) in the data set on S. aureus Smith; 0.244 µg/mL (≈ 0.654 µM) with S. aureus 53-180; 62.5 µg/mL (≈ 167 µM) in the data set with P. vulgaris 6896; 0.031 µg/mL (≈ 0.083 µM) against N. catarrhalis 8193. The molecule further came in with an MIC in the data set on K. pneumoniae 10031 of 0.122 µg/mL (≈ 0.327 µM). In data set [1] (setting [4]), the MTD is 10 mg/kg. Further, the ED100 in data set [2] (1440 h, 60-day survivors) stood at 10 mg/kg. Besides, in data set [2] (1440 h, 60-day survivors), the minimal effective dose came out at 2.5 mg/kg. Further, the “Cure/Treat at Min. Curing Dose” value in data set [2] (60-day survivors) is listed as 2/5. In addition, the “ΔMST (increase in mean survival time)” value in [2] (dose 1.25 mg. per kg.) came out at 9.6.

Turning to `Nc1nc(N)c2c(ccc3c2ccn3-c2ccc([N+](=O)[O-])cc2)n1` [Example 77], the MIC against S. paratyphi 11737 was found to be 62.5 µg/mL (≈ 195 µM); against E. coli 9637, 7.81 µg/mL (≈ 24.4 µM); with S. aureus Smith, 3.9 µg/mL (≈ 12.2 µM); in the data set on S. aureus 53-180, 3.9 µg/mL (≈ 12.2 µM); against P. vulgaris 6896, 250 µg/mL (≈ 780 µM); against N. catarrhalis 8193, 0.031 µg/mL (≈ 0.0968 µM). In the data set on K. pneumoniae 10031, this molecule registered an MIC of 0.976 µg/mL (≈ 3.05 µM). In addition, in data set [1] (setting [4]), the MTD stood at 640 mg/kg. In addition, the ED100 in data set [2] (1440 h, 60-day survivors) was 640 mg/kg. Besides, the minimal effective dose in data set [2] (1440 h, 60-day survivors) turned out to be 160 mg/kg. Also, the “Cure/Treat at Min. Curing Dose” value in data set [2] (60-day survivors) is recorded as 5/5. Also, in [2] (dose 40 mg. per kg.), the “ΔMST (increase in mean survival time)” value came out at 28.3.

As to `Cc1cc(-n2ccc3c4c(N)nc(N)nc4ccc32)ccc1[N+](=O)[O-]` [Example 80], the MIC was greater than 250 µg/mL in the data set with S. paratyphi 11737; greater than 250 µg/mL in the data set on E. coli 9637; 62.5 µg/mL (≈ 187 µM) against S. aureus Smith; 7.81 µg/mL (≈ 23.4 µM) in the data set with S. aureus 53-180; greater than 250 µg/mL in the data set on P. vulgaris 6896; 0.0152 µg/mL (≈ 0.0455 µM) with N. catarrhalis 8193. In the data set on K. pneumoniae 10031, this molecule yielded an MIC of 0.976 µg/mL (≈ 2.92 µM). The MTD in data set [1] (setting [4]) was determined as 640 mg/kg. For the same molecule, in [2] (1440 h, 60-day survivors), the ED100 was 640 mg/kg. Also, in [2] (1440 h, 60-day survivors), the minimal effective dose is 640 mg/kg. Moreover, the “Cure/Treat at Min. Curing Dose” value in data set [2] (60-day survivors) is 5/5. Moreover, the “ΔMST (increase in mean survival time)” value in data set [2] (dose 160 mg. per kg.) stood at 13.9.

For `Cc1ccc(C)c(Cn2c(C)cc3c4c(N)nc(N)nc4ccc32)c1` [Example 103], the minimal inhibitory concentration (MIC) is greater than 250 µg/mL against S. paratyphi 11737; 250 µg/mL (≈ 754 µM) in the data set on E. coli 9637; 31.3 µg/mL (≈ 94.4 µM) with S. aureus Smith; 7.81 µg/mL (≈ 23.6 µM) against S. aureus 53-180; greater than 250 µg/mL with P. vulgaris 6896; 1.95 µg/mL (≈ 5.88 µM) in the data set with N. catarrhalis 8193. Moreover, the MIC against K. pneumoniae 10031 turned out to be 15.6 µg/mL (≈ 47.1 µM). Besides, in data set [1] (alive on day 14 considered cured, no 60-day data), the MTD was 80 mg/kg. For the same molecule, the ED100 in data set [2] (setting [5]) was found to be 5 mg/kg. In addition, the minimal effective dose in data set [2] (setting [5]) was determined as 1.25 mg/kg. In addition, the “Cure/Treat at Min. Curing Dose” value in data set [2] (alive on day 14 considered cured) is given as 1/5. Besides, in data set [2] (dose 1.25 mg. per kg., alive on day 14 considered cured, no 60-day data), the “ΔMST (increase in mean survival time)” value worked out at 6.8.

Usually MIC stands for the lowest concentration found to suppress growth.

(Values after patent publication US4118561A, “7-(Substituted)-7H-pyrrolo[3,2-f]quinazoline-1,3-diamines” (priority 1977, dated 1978).)
